According to ChEMBL document CHEMBL5465560, “Selectivity Literature for EUbOPEN Chemogenomic Library” (2024):

Experiments:
[1] = target: Cyclin-dependent kinase-like 1 (Homo sapiens) (UniProt Q00532); assay: Selectivity interaction (KinomeScan (DiscoverX)) EUB0001049a CDKL1; details: at 1 µM
[2] = target: T1, Serine/threonine-protein kinase Nek9 (Homo sapiens) (UniProt Q8TD19); assay: Selectivity interaction (ActivX KiNativ screen (kinase selectivity in THP-1 cell lysates)) EUB0000639a NEK9; type: subcellular; details: lysate, at 0.04 µM
T1 sequence (whole entry): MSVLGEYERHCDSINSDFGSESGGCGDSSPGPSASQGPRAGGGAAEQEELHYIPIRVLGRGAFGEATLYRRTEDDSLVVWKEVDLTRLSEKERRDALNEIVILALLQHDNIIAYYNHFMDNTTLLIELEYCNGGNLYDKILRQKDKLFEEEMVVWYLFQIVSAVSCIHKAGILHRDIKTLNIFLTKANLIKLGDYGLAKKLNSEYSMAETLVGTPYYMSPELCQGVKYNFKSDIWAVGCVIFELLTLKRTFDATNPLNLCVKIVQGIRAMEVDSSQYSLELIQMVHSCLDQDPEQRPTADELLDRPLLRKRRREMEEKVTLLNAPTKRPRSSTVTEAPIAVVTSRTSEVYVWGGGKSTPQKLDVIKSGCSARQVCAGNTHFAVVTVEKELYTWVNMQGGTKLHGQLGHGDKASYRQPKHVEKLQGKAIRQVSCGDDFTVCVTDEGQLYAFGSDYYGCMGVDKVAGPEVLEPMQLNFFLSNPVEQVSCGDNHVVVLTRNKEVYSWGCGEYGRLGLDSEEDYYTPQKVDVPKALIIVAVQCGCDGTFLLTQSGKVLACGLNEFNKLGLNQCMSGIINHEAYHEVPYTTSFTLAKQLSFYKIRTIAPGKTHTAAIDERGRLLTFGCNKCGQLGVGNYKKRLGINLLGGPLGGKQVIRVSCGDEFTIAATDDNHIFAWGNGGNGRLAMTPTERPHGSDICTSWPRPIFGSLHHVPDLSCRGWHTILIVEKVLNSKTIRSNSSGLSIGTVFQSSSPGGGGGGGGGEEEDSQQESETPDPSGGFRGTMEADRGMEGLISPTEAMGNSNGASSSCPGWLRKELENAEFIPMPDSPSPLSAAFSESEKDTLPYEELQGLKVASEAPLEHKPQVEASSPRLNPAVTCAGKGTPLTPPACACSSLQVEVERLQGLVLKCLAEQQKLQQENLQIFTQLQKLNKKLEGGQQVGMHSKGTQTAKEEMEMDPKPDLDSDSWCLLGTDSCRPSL

[3] = target: 1-phosphatidylinositol 3-phosphate 5-kinase (Homo sapiens) (UniProt Q9Y2I7); assay: Selectivity interaction (KinomeScan (DiscoverX)) EUB0000695a PIKFYVE; details: at 100 nM
[4] = tested on: Mast/stem cell growth factor receptor Kit (Homo sapiens), P10721 [D816H]; assay: (§1) Selectivity interaction (KinomeScan (DiscoverX)) EUB0000595a KIT; details: at 10 µM
[5] = tested on: Mast/stem cell growth factor receptor Kit (Homo sapiens), P10721 [D816V]; assay: as §1; details: at 10 µM
[6] = tested on: Mast/stem cell growth factor receptor Kit (Homo sapiens), P10721 [L576P]; assay: as §1; details: at 10 µM
[7] = tested on: Mast/stem cell growth factor receptor Kit (Homo sapiens), P10721 [V559D,T670I]; assay: as §1; details: at 10 µM
[8] = tested on: Mast/stem cell growth factor receptor Kit (Homo sapiens), P10721 [V559D,V654A]; assay: as §1; details: at 10 µM
[9] = tested on: Mast/stem cell growth factor receptor Kit (Homo sapiens), P10721 [V559D]; assay: as §1; details: at 10 µM
[10] = target: T2, Serine/threonine-protein kinase NLK (Homo sapiens) (UniProt Q9UBE8); assay: Selectivity interaction (KinomeScan (DiscoverX)) EUB0001079a NLK; details: at 1 µM
T2 sequence (whole entry): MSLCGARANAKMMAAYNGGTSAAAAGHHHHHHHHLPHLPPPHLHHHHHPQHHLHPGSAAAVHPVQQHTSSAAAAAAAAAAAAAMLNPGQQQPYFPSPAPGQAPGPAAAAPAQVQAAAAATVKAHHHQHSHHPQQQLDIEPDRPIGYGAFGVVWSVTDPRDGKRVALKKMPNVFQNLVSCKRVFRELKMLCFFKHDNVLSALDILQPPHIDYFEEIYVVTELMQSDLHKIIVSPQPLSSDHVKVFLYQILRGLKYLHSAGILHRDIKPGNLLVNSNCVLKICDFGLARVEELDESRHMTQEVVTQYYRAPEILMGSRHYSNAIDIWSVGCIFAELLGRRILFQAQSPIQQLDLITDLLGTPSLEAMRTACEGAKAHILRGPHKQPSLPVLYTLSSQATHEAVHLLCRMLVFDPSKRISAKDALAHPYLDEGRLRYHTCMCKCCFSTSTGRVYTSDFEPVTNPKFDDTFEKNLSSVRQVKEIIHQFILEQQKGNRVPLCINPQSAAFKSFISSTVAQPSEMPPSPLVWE

[11] = target: SRSF protein kinase 3 (Homo sapiens) (UniProt Q9UPE1); assay: Selectivity interaction (KinomeScan (DiscoverX)) EUB0001079a SRPK3; details: at 1 µM
[12] = target: T3, Megakaryocyte-associated tyrosine-protein kinase (Homo sapiens) (UniProt P42679); assay: Selectivity interaction (ProQinase) EUB0000171b MATK
T3 sequence (whole entry): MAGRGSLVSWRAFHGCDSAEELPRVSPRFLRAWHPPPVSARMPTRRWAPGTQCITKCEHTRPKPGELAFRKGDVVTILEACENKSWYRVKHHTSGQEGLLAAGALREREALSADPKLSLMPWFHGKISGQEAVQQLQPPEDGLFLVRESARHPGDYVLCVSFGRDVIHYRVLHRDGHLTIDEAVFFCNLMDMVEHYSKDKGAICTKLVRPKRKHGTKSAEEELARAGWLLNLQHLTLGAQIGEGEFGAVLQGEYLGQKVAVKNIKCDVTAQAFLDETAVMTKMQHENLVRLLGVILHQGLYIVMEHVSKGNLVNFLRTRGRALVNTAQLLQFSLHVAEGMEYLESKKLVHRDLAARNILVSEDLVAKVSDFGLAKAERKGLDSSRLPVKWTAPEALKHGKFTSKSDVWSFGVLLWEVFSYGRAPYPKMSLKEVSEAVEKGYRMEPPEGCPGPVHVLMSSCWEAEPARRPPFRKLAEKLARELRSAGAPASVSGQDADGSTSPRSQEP

Sequence of Mast/stem cell growth factor receptor Kit (Homo sapiens), P10721 [L576P] (P10721 whole entry L576P): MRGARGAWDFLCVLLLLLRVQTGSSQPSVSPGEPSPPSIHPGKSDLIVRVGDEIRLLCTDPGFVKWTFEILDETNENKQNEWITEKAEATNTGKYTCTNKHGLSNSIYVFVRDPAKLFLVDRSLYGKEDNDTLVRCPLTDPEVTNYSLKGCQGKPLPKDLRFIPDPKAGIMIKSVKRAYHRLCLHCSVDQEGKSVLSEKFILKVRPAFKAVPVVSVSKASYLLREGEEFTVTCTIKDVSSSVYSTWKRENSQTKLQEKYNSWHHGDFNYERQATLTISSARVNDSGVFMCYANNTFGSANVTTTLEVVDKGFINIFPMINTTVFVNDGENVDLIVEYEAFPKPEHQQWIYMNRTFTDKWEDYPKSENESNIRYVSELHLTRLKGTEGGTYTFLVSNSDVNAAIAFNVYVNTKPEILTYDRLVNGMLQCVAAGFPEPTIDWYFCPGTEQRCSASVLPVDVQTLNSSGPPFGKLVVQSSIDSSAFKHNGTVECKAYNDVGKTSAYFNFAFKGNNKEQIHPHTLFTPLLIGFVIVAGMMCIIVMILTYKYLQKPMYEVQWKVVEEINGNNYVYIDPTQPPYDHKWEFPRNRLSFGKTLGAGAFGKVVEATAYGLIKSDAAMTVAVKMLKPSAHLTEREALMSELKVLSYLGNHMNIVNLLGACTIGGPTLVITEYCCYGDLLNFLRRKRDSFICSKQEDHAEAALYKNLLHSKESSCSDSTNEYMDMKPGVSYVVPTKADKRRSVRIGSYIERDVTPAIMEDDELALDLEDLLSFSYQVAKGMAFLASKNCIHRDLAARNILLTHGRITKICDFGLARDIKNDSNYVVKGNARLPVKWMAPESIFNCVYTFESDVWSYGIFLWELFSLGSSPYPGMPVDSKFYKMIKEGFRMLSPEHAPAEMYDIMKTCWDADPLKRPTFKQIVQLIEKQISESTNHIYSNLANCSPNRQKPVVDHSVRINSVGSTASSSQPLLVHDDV
Sequence of Mast/stem cell growth factor receptor Kit (Homo sapiens), P10721 [D816V] (P10721 whole entry D816V): as the sequence (P10721 whole entry L576P) above, with P576L, D816V counted along it
Sequence of 1-phosphatidylinositol 3-phosphate 5-kinase (Homo sapiens) (Q9Y2I7 whole entry): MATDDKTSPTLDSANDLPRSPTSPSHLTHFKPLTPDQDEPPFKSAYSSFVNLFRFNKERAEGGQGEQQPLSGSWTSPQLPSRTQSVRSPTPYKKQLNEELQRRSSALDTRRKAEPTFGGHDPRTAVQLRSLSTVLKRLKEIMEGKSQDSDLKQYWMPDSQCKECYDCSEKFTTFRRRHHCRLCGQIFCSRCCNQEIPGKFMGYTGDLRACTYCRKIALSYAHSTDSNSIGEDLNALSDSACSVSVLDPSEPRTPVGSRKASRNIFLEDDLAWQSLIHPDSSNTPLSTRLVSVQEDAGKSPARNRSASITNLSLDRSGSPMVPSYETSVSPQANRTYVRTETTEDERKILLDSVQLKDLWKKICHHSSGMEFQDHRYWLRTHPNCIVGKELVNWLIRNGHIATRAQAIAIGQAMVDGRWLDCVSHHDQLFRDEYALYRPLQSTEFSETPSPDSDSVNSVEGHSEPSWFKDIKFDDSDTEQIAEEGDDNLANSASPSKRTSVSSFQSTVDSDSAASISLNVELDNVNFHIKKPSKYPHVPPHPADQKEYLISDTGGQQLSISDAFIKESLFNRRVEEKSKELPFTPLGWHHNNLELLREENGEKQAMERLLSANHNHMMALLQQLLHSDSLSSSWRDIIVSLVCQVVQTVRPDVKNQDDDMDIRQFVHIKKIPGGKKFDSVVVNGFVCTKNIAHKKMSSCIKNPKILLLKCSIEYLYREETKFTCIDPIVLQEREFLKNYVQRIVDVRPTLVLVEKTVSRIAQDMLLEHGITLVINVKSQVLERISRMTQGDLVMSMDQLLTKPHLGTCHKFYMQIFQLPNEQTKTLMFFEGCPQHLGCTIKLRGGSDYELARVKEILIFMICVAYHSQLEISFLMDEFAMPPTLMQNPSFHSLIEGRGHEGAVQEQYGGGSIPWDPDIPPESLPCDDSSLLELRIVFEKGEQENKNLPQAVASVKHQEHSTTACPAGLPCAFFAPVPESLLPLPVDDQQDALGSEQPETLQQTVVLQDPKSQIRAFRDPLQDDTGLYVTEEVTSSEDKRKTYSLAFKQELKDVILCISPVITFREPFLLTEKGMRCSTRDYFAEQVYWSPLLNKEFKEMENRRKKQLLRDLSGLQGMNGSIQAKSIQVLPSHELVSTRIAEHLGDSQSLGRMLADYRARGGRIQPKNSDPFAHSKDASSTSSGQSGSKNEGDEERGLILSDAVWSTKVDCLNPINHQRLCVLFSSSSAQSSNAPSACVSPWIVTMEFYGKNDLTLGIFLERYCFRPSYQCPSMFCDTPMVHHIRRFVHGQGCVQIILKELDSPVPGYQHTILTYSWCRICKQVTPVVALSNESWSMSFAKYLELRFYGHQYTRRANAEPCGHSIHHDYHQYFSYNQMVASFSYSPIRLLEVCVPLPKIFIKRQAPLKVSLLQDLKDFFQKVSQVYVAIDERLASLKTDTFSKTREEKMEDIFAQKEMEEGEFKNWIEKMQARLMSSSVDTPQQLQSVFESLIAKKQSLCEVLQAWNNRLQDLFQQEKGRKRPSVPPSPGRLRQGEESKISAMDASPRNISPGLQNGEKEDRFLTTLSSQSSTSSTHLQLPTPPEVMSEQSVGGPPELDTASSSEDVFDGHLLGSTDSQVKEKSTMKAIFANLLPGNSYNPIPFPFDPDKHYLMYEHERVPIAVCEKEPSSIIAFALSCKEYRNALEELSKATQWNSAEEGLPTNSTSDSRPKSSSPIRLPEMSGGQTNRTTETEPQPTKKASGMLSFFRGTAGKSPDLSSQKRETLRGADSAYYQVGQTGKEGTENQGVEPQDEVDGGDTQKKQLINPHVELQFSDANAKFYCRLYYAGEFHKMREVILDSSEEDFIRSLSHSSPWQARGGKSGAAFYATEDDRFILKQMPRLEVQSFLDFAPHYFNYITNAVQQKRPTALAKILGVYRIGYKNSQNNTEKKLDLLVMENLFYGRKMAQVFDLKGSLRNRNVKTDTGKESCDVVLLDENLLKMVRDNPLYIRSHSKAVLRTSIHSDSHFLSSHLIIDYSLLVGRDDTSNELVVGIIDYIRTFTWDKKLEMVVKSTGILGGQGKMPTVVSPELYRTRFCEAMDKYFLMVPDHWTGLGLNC
Sequence of Cyclin-dependent kinase-like 1 (Homo sapiens) (Q00532 whole entry): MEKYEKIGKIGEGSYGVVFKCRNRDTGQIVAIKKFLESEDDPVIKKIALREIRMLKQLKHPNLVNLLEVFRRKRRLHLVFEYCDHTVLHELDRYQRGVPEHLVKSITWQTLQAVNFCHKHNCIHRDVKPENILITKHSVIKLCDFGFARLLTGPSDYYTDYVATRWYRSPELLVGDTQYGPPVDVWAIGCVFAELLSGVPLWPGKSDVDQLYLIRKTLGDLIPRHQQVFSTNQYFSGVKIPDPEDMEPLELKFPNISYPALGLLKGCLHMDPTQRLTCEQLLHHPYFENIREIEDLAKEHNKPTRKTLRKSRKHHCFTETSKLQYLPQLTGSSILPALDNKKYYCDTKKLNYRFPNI
Sequence of Mast/stem cell growth factor receptor Kit (Homo sapiens), P10721 [V559D] (P10721 whole entry V559D): as the sequence (P10721 whole entry L576P) above, with V559D, P576L counted along it
Sequence of Mast/stem cell growth factor receptor Kit (Homo sapiens), P10721 [V559D,T670I] (P10721 whole entry V559D/T670I): as the sequence (P10721 whole entry L576P) above, with V559D, P576L, T670I counted along it
Sequence of SRSF protein kinase 3 (Homo sapiens) (Q9UPE1 whole entry): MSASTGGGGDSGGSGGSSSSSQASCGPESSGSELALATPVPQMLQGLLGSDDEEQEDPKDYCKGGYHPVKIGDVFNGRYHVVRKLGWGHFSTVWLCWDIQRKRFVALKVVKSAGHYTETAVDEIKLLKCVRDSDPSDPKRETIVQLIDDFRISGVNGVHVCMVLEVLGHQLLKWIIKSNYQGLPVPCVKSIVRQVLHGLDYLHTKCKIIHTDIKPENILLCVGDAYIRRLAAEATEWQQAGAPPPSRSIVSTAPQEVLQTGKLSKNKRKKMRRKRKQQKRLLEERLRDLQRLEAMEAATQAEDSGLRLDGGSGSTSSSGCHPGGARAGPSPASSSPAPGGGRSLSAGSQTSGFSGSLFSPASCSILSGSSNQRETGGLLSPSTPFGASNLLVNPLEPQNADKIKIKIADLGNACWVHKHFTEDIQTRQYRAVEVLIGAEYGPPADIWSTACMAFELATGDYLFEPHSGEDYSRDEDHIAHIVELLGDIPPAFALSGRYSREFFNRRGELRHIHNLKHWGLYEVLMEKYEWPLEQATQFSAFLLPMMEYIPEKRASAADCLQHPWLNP
Sequence of Mast/stem cell growth factor receptor Kit (Homo sapiens), P10721 [D816H] (P10721 whole entry D816H): as the sequence (P10721 whole entry L576P) above, with P576L, D816H counted along it
Sequence of Mast/stem cell growth factor receptor Kit (Homo sapiens), P10721 [V559D,V654A] (P10721 whole entry V559D/V654A): as the sequence (P10721 whole entry L576P) above, with V559D, P576L, V654A counted along it

With COc1cc(Nc2nc(C)cc(-c3cnn4nc(OC)ccc34)n2)cc(C(F)(F)F)c1 the % of control [1] was 73%.

CC[C@@H]1[C@H](F)C(=O)N[C@@H]1COc1nccc2cc(C(N)=O)c(OC)cc12 [ZIMLOVISERTIB] showed a % of inhibition [2] of 5%.

Cc1cc(F)c(C(=O)Nc2cccc(-c3nncn3C(C)C)n2)cc1-n1cnc(C2CC2)c1 was tested, and the % of control [3] was 98%.

COCC(=O)NC/C=C/c1ccc2ncnc(Nc3ccc(Oc4ccc(C)nc4)c(C)c3)c2c1 [CP-724714] showed a % of control [4] of 100%, a % of control [5] of 89% and a % of control [6] of 54%. It also gave a % of control [7] of 100%, a % of control [8] of 88% and a % of control [9] of 17%.

Work on Nc1cnc(N2CCc3cc(S(=O)(=O)Nc4c(F)cc(Cl)cc4F)cc(N4CCCC4=O)c32)nc1 [TP-020n] yielded a % of control [10] of 100% and a % of control [11] of 100%.

With C=CC(=O)Nc1cccc(C(=O)Nc2ccc(Nc3cc(-c4[nH]c(SC)nc4C)ccn3)cc2)c1 the % of control ([12]; at 1 µM) was 92% and the % of control ([12]; at 5 µM) was 111%.
